Experimental data as given in article doi:10.1101/2024.03.29.587371v1 (biorxiv, 2024).
Values belong to the compound of their own block, whether it stands above or below them. Residues, ends and D or L forms follow the SMILES beside them.

Key:
Assay type in all cases: biochemical
[1] = biological target: T1, AtFBA5 (SUMO-AtFBA5) (Arabidopsis thaliana, UniProt O65581); test: coupled NADH assay at […] nm, FBP saturation curves with inhibitor
T1 sequence (O65581 1-358): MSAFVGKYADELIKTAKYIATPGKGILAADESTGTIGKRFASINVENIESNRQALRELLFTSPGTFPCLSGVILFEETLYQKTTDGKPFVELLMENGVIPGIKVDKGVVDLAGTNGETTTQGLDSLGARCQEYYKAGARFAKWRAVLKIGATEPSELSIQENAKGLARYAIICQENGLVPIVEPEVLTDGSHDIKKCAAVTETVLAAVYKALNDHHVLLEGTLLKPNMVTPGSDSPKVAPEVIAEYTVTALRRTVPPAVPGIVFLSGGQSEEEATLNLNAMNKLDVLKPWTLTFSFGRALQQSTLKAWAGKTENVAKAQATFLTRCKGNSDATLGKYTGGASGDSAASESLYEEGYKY

[2] = biological target: T2, AtFBA4 (SUMO-AtFBA4) (Arabidopsis thaliana, UniProt F4KGQ0); test: as above
T2 sequence (F4KGQ0 1-393): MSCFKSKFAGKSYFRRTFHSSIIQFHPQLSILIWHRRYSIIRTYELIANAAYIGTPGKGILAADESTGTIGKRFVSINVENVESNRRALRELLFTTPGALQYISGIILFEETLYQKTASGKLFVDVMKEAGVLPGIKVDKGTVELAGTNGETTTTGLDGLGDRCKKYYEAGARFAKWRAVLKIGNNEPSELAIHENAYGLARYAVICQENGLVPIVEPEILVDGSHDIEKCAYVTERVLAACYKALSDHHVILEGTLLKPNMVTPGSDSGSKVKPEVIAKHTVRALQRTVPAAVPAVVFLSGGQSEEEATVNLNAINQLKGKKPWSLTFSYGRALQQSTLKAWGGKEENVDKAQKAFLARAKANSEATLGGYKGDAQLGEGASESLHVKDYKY

[3] = biological target: T1, AtFBA5 (SUMO-AtFBA5); test: coupled NADH assay, activity relative to control
[4] = biological target: T2, AtFBA4 (SUMO-AtFBA4); test: coupled NADH assay, activity relative to control; details: read-out: % residual activity at 5.0 mM

Ki [1]: 63 ± 4 µM
Ki [2]: 80 ± 10 µM
SMILES: O=c1c(O)c(-c2ccc(O)cc2O)oc2cc(O)cc(O)c12 [morin, 3,5,7,2′,4′-pentahydroxyflavone]

% of control activity at 1.0 mM ([3]; pH 7.5, 250 µM FBP): 144 ± 10%
SMILES: O=P(O)(O)OP(=O)(O)O [PPi]

remaining activity at 500 µM ([3]; read-out: % residual activity at 0.50 mM): 82 ± 5%
SMILES: N[C@@H](Cc1ccc(O)cc1)C(=O)N[C@@H](CC(=O)O)C(=O)O [Tyr-Asp] (H-Tyr-Asp-OH)

remaining activity at 5000 µM [4]: 69 ± 2%
SMILES: O=C(O)CCC(=O)C(=O)O [2-OG]

remaining activity at 5000 µM [4]: 68 ± 12%
SMILES: O=C(O)C[C@H](O)C(=O)O [Malate]
